Test results from patent US20110118218A1, “TREATING HYPERTENSION WITH 25-HYDROXYVITAMIN D3” (priority 2008, published 2011).

How the values were obtained:
[1] = cited from earlier work
[2] = Human clinical trial: blood pressure after daily/weekly oral treatment for 4 months; type: in vivo; settings: for Diastolic blood pressure (GLM least square mean) / Systolic blood pressure (GLM least square mean): healthy postmenopausal women, 20 μg per day or 140 μg per week oral, repeated measurement analysis over 13 visits adjusted for baseline blood pressure and time; for Effect on blood pressure (in words): mildly hypertensive subjects, none above 146/95 mmHg
From the text: Each group includes five subjects. They are followed for four months in Ziirich, Switzerland during the winter.
Equimolar quantities of both substances were investigated. […] As the maximum pre-existing baseline concentration of 25-hydroxyvitamin D3 will be 50 nmol/L, it is not anticipated that subjects will approach the range where disturbance in Ca^2+ homeostasis has been observed.
Each dosage was consumed orally at breakfast.
For blood pressure assessments a standard protocol was used (OMRON professional apparatus) to measure diastolic and systolic blood pressure in Week 1 on visit 2 (baseline) and the remaining 4 days of Week 1. The assessments continued at each visit of Weeks 2, 3, 5, 7, 9, 11, 13 and 15.
Treatment duration was 4 months.

[3] = 20 μg per day or 140 μg per week, 4 months, 13 visits, adjusted for baseline blood pressure and time
[4] = daily or weekly treatment, identical dosages

| SMILES | Blood concentration of 25-hydroxyvitamin D3 at which hypercalcemia may occur ([1]; in vivo) | Diastolic blood pressure, change vs. daily/weekly Vitamin D3 [2, 3] | Systolic blood pressure, change vs. daily/weekly Vitamin D3 [2, 3] | Reduction of diastolic blood pressure versus Vitamin D3 [2, 4] | Reduction of systolic blood pressure versus Vitamin D3 [2, 4] | Diastolic blood pressure (GLM least square mean) ([2]; 4 months) | Systolic blood pressure (GLM least square mean) ([2]; 4 months) | Effect on blood pressure (in words) [2] | Blood concentration of 25-hydroxyvitamin D3 resulting from ingestion as dietary supplement ([1]; ingestion of vitamin D3 at the safe upper level (250 μg/day)) |
| --- | --- | --- | --- | --- | --- | --- | --- | --- | --- |
| C=C1CC[C@H](O)C/C1=C/C=C1\CCC[C@]2(C)[C@@H]([C@H](C)CCCC(C)(C)O)CC[C@@H]12 [25-OH D3, 25-hydroxyvitamin D3] | greater than 375 nmol/L | −1.4 mmHg | −6.1 mmHg | 1.4 mmHg | 6.1 mmHg | 68.9 mmHg | 111.1 mmHg | very effective reduction of blood pressure |  |
| C=C1CC[C@H](O)C/C1=C/C=C1\CCC[C@]2(C)[C@@H]([C@H](C)CCCC(C)C)CC[C@@H]12 [Vitamin D3, cholecalciferol] |  |  |  |  |  | 70.3 mmHg | 117.2 mmHg | no effect | about 200 nmol/L |
